pIC50: −log10 of the molar value.

The target in this test is T1, intracellular domain of human Tie2 (GST fusion protein) (Homo sapiens, UniProt Q02763).
T1 construct: intracellular domain of human Tie2 (amino acids 776-1124); made in house; host or cells: Baculovirus-infected insect cells (Hi5)
T1 sequence (Q02763 776-1124): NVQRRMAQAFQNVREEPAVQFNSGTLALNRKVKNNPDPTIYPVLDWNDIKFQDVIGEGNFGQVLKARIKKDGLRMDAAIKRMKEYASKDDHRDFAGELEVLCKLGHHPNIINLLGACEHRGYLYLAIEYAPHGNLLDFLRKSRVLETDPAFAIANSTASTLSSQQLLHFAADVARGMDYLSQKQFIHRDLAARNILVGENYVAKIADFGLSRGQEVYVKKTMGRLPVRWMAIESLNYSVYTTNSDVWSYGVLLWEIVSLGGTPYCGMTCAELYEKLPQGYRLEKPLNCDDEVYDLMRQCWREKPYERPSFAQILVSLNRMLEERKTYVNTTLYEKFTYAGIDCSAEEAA
Put plainly: Tie2 kinase assay (Tie2-TR-FRET). Format: biochemical. The settings on record: ATP concentration 1 mM, in some cases means of several independent determinations. How it is done: The Tie2-inhibitory activity of the substances according to the invention was determined with the aid of one of the Tie2-TR-FRET assays described in the sections below at an ATP concentration of 1 mM (TR-FRET=Time-Resolved Fluorescence Resonance Energy Transfer):
The enzyme used was a recombinant fusion protein of glutathione S-transferase (GST) and the intracellular domain of human Tie2 (amino acids 776-1124) which was expressed in Baculovirus-infected insect cells (Hi5) and was purified by affinity chromatography on glutathione-Sepharose. Alternatively, it is also possible to use commercially available GST-His6-Tie2 fusion protein (ProQinase GmbH, Freiburg im Breisgau, Germany). The substrate used for the kinase reaction was the biotinylated peptide biotin-Ahx-[…] (C-terminus in amide form) which is commercially available (for example from Biosyntan, Berlin, Germany).
For the assay, 50 nl of a 100-fold concentrated solution of the respective test substance in DMSO were pipetted into a black low-volume 384-well microtitre plate (Greiner Bio-One, Frickenhausen, Germany) 2 μl of a solution of the Tie2 fusion protein in assay buffer [50 mM HEPES/HCl pH 7, 10 mM MgCl2, 2.5 mM MnCl2, 1 mM dithiothreitol, 0.01% (v/v) Nonidet P-40, 0.1% (w/v) bovine serum albumin (BSA), 1× Complete EDTA-free protease inhibitor mixture (Roche)] were added, and the mixture was incubated for 15 min to allow pre-binding of the substance to the enzyme prior to the kinase reaction. The kinase reaction was then started by adding 3 μl of a solution of adenosine triphosphate (ATP, 1.67 mM→final concentration in 5 μl assay volume=1 mM) and substrate (1.67 μM→final concentration in 5 μl assay volume=1 μM) in assay buffer, and the resulting mixture was incubated for a reaction time of 60 min at 22° C. The concentration of the Tie2 fusion protein was adapted to the respective activity of the enzyme and adjusted such that the assay was carried out in the linear range. Typical concentrations were in the range of 30 ng/ml.
The reaction was stopped by addition of 5 μl of a solution of TR-FRET detection reagents [200 nM streptavidin-XL665 and 2 nM PT66-Eu chelate, a europium chelate-labelled anti-phosphotyrosine antibody (Perkin-Elmer); alternatively, it is also possible to use PT66-Tb cryptate (Cisbio Bioassays, Codolet, France)] in aqueous EDTA solution[90 mM EDTA, 0.28% (w/v) bovine serum albumin (BSA) in 50 mM HEPES pH 7.5]. The resulting mixture was incubated at 22° C. for 1 h to allow formation of the complex of the biotinylated phosphorylated substrate and the detection reagents. The amount of phosphorylated substrate was then determined by measuring the resonance energy transfer from PT66-Eu chelate to streptavidin-XL665. To this end, the fluorescence emissions at 620 nm and 665 nm after excitation at 350 nm were measured in a TR-FRET measuring instrument (for example Viewlux, Perkin-Elmer). The ratio of the emissions at 665 nm and at 620 nm was taken as a measure of the amount of phosphorylated substrate.
Usually, the test substance in question was tested on the same microtitre plate at […] different concentrations in the range from 20 μM to 0.073 nM (for example at 20 μM, 5.7 μM, 1.6 μM, 0.47 μM, 0.13 μM, 38 nM, 11 nM, 3.1 nM, 0.89 nM, 0.25 nM and 0.073 nM) in duplicate for each concentration. The dilution series were prepared prior to the assay at the stage of the 100-fold concentrated solution by serial dilution (the exact concentrations may vary depending on the pipettors used in each case). IC50 values were calculated using a 4-parameter fit, with the aid of inhouse software.
Table 1 below lists the IC50 values from this assay for individual working examples (in some cases as means of several independent individual determinations): […]
Consider `Cc1ccc(NC(=O)c2ccnc(N3CCOCC3)c2)cc1-n1ccn2nc(-c3cccnc3)cc12` [Example 69, N-{4-Methyl-3-[6-(pyridin-3-yl)-1H-imidazo[1,2-b]pyrazol-1-yl]phenyl}-2-(morpholin-4-yl)-pyridine-4-carboxamide], for which the pIC50 was 6.24.
The result for `CCCOc1cccc(C(=O)Nc2ccc(C)c(-n3ccn4nc(-c5cccnc5)cc34)c2)c1` [Example 61, N-{4-Methyl-3-[6-(pyridin-3-yl)-1H-imidazo[1,2-b]pyrazol-1-yl]phenyl}-3-propoxybenzamide] reads 6.59.
The result for `Cc1cc(C)c(-n2ccn3nc(-c4cccnc4)cc23)cc1NC(=O)c1cccc(OCCO)c1` [Example 136, N-{2,4-Dimethyl-5-[6-(pyridin-3-yl)-1H-imidazo[1,2-b]pyrazol-1-yl]phenyl}-3-(2-hydroxyethoxy)benzamide] reads 6.16.
With `Cc1ccc(NC(=O)c2ccc(Cl)c(N3CCCCC3)c2)cc1-n1ccn2nc(-c3cccnc3)cc12` [Example 58, 4-Chloro-N-{4-methyl-3-[6-(pyridin-3-yl)-1H-imidazo[1,2-b]pyrazol-1-yl]phenyl}-3-(piperidin-1-yl)benzamide] the figure was 6.48; with `Cc1ccc(NC(=O)c2cc(OCCN)cc(S(F)(F)(F)(F)F)c2)cc1-n1ccn2nc(-c3cccnc3)cc12` [Example 22, 3-(2-Aminoethoxy)-N-{4-methyl-3-[6-(pyridin-3-yl)-1H-imidazo[1,2-b]pyrazol-1-yl]phenyl}-5-(pentafluoro-λ^6-sulphanyl)benzamide], 9.22; with `Cc1cc(C)c(-n2ccn3nc(-c4cccnc4)cc23)cc1NC(=O)c1cc(Br)cc(C(C)(C)C)c1` [Example 113, 3-Bromo-5-tert-butyl-N-{2,4-dimethyl-5-[6-(pyridin-3-yl)-1H-imidazo[1,2-b]pyrazol-1-yl]-phenyl}benzamide], 9.22.
As for `Cc1cc(C)c(-n2ccn3nc(-c4cncnc4)cc23)cc1NC(=O)c1cc(Br)cc(S(F)(F)(F)(F)F)c1` [Example 165, 3-Bromo-N-{2,4-dimethyl-5-[6-(pyrimidin-5-yl)-1H-imidazo[1,2-b]pyrazol-1-yl]phenyl}-5-(pentafluoro-λ^6-sulphanyl)benzamide], the pIC50 is 8.77.
The result for `Cc1ccc(NC(=O)c2cccc(N(C)C)c2)cc1-n1ccn2nc(-c3cccnc3)cc12` [Example 59, 3-(Dimethylamino)-N-{4-methyl-3-[6-(pyridin-3-yl)-1H-imidazo[1,2-b]pyrazol-1-yl]phenyl}-benzamide] reads 6.22; that for `Cc1cc(C)c(-n2ccn3nc(-c4cccnc4)cc23)cc1NC(=O)c1cccc(OCC(C)C)c1` [Example 133, N-{2,4-Dimethyl-5-[6-(pyridin-3-yl)-1H-imidazo[1,2-b]pyrazol-1-yl]phenyl}-3-isobutoxybenzamide], 7.28; that for `Cc1ccc(NC(=O)c2cc(Br)cc(S(F)(F)(F)(F)F)c2)cc1-n1ccn2nc(-c3cncs3)cc12` [Example 175, 3-Bromo-N-{4-methyl-3-[6-(1,3-thiazol-5-yl)-1H-imidazo[1,2-b]pyrazol-1-yl]phenyl}-5-(pentafluoro-λ^6-sulphanyl)benzamide], 8.49.
As to `Cc1ccc(NC(=O)c2cc(N3CCNCC3)cc(S(F)(F)(F)(F)F)c2)cc1-n1ccn2nc(-c3cccnc3)cc12` [Example 17, N-{4-Methyl-3-[6-(pyridin-3-yl)-1H-imidazo[1,2-b]pyrazol-1-yl]phenyl}-3-(pentafluoro-λ^6-sulphanyl)-5-(piperazin-1-yl)benzamide], the pIC50 is 9.52.
With `Cc1ccc(NC(=O)c2cc(C#N)cc(S(F)(F)(F)(F)F)c2)cc1-n1ccn2nc(-c3cncs3)cc12` [Example 177, 3-Cyano-N-{4-methyl-3-[6-(1,3-thiazol-5-yl)-1H-imidazo[1,2-b]pyrazol-1-yl]phenyl}-5-(pentafluoro-λ^6-sulphanyl)benzamide] the figure was 8.74; with `Cc1c(NC(=O)c2cc(C#N)cc(S(F)(F)(F)(F)F)c2)cccc1-n1ccn2nc(-c3cccnc3)cc12` [Example 80, 3-Cyano-N-{2-methyl-3-[6-(pyridin-3-yl)-1H-imidazo[1,2-b]pyrazol-1-yl]phenyl}-5-(pentafluoro-λ^6-sulphanyl)benzamide], 6.14; with `Cc1ccc(NC(=O)c2cc(C#N)cc(C3(O)CCC3)c2)cc1-n1ccn2nc(-c3cccnc3)cc12` [Example 92, 3-Cyano-5-(1-hydroxycyclobutyl)-N-{4-methyl-3-[6-(pyridin-3-yl)-1H-imidazo[1,2-b]pyrazol-1-yl]phenyl}benzamide], 7.54.
Turning to `Cc1ccc(NC(=O)c2cc(CN3CCN(C)CC3)cc(S(F)(F)(F)(F)F)c2)cc1-n1ccn2nc(-c3cccnc3)cc12` [Example 36, 3-[(4-Methylpiperazin-1-yl)methyl]-N-{4-methyl-3-[6-(pyridin-3-yl)-1H-imidazo[1,2-b]pyrazol-1-yl]phenyl}-5-(pentafluoro-λ^6-sulphanyl)benzamide], the pIC50 is 9.52.
The result for `Cc1ccc(NC(=O)c2cc(CN3CCCC3)cc(S(F)(F)(F)(F)F)c2)cc1-n1ccn2nc(-c3cccnc3)cc12` [Example 33, N-{4-Methyl-3-[6-(pyridin-3-yl)-1H-imidazo[1,2-b]pyrazol-1-yl]phenyl}-3-(pentafluoro-λ^6-sulphanyl)-5-(pyrrolidin-1-ylmethyl)benzamide] reads 8.60; that for `Cc1cc(F)c(NC(=O)c2cc(C#N)cc(C(C)(C)C)c2)cc1-n1ccn2nc(-c3cccnc3)cc12` [Example 118, 3-tert-Butyl-5-cyano-N-{2-fluoro-4-methyl-5-[6-(pyridin-3-yl)-1H-imidazo[1,2-b]pyrazol-1-yl]-phenyl}benzamide], 9.40.
With `Cc1ccc(NC(=O)c2ccnc(N3CCCCC3)c2)cc1-n1ccn2nc(-c3cccnc3)cc12` [Example 68, N-{4-Methyl-3-[6-(pyridin-3-yl)-1H-imidazo[1,2-b]pyrazol-1-yl]phenyl}-2-(piperidin-1-yl)-pyridine-4-carboxamide] the figure was 7.15; with `Cc1ccc(NC(=O)c2cccc(-n3cccn3)c2)cc1-n1ccn2nc(-c3cccnc3)cc12` [Example 55, N-{4-Methyl-3-[6-(pyridin-3-yl)-1H-imidazo[1,2-b]pyrazol-1-yl]phenyl}-3-(1H-pyrazol-1-yl)-benzamide], 6.56.
Take `Cc1cc(C)c(-n2ccn3nc(-c4cccnc4)cc23)cc1NC(=O)c1cc(C(C)(C)F)cc(S(F)(F)(F)(F)F)c1` [Example 149, N-{2,4-Dimethyl-5-[6-(pyridin-3-yl)-1H-imidazo[1,2-b]pyrazol-1-yl]phenyl}-3-(2-fluoropropan-2-yl)-5-(pentafluoro-λ^6-sulphanyl)benzamide]: the negative logarithm of the IC50 (pIC50) is 8.64.
The result for `COc1cccc(C(=O)Nc2cc(-n3ccn4nc(-c5cccnc5)cc34)c(C)cc2C)c1` [Example 131, N-{2,4-Dimethyl-5-[6-(pyridin-3-yl)-1H-imidazo[1,2-b]pyrazol-1-yl]phenyl}-3-methoxybenzamide] reads 6.60; that for `Cc1cc(C)c(-n2ccn3nc(-c4cccnc4)cc23)cc1NC(=O)c1cc(Cl)nc(C(C)(C)C)c1` [Example 115, 2-tert-Butyl-6-chloro-N-{2,4-dimethyl-5-[6-(pyridin-3-yl)-1H-imidazo[1,2-b]pyrazol-1-yl]-phenyl}isonicotinamide], 9.10.
